A short description of the data set: UV absorbing power (E1% 1 cm). Conditions: at the λmax printed in Table 1 (290 nm or 305 nm). The format is physicochemical. An excerpt:
Fatty acids of Tung seed oil have good UV absorbing power as is evident from its conjugated system and from its E1% 1 cm of 1600 at 270 nm and 360 at 290 nm. These UV absorbing fatty acids can not only protect the ingredients of the formulations but also the skin and hair from the ravages of solar radiation when the formulations are applied. […] UV B radiation of solar spectrum is the most damaging since it causes skin cancer.
Both homosalate and Octyl salicylates are popular sunscreen molecules all over the world.

With `CC1CC(OC(=O)c2ccccc2O)CC(C)(C)C1` (stereo not shown) [Homosalate (118-56-9), Homosalate], the E1 % turned out to be 180.

The record behind these values is patent US12109283B2, “Safe and ecofriendly persistent sanitizing gel for topical application” (GALAXY SURFACTANTS LTD., priority 2021, dated 2024).
